From patent US20200319197A1, “Biomarkers of Preterm Birth” (Carmentix PTE. Ltd., priority 2017, published 2020)
Where two headings read alike, the source gives them in different places.

Assays:
[1] = test system: End1 cells; conditions: MTT, vs untreated control; for decrease in cell viability: significant
[2] = test system: ECM1; conditions: Ect1, 200 μM H2O2, 24 h, vs control untreated cells, ± SEM
[3] = test system: FGA; conditions: End1, 100 μM H2O2, 24 h, vs control untreated cells, ± SEM
[4] = test system: EFEMP1; conditions: End1, 100 μM H2O2, 24 h, vs control untreated cells, ± SEM
[5] = test system: GGH; assay: GGH in medium of Ect1 post-H2O2 treatment, ELISA; conditions: for Fold change GGH expression: vs control untreated cells, ± SEM
[6] = test system: GGH; assay: GGH in medium of End1 post-H2O2 treatment, ELISA; conditions: vs control untreated cells, ± SEM
[7] = test system: ECM1; assay: ECM1 in medium of End1 post-H2O2 treatment, ELISA; conditions: vs control untreated cells, ± SEM
[8] = test system: LAMC2; assay: LAMC2 in medium of End1 post-H2O2 treatment, ELISA; conditions: vs control untreated cells, ± SEM
[9] = test system: Ect1 cells; assay: MTT assay, cell viability and proliferation after H2O2 treatment, Ect1; conditions: vs untreated control
[10] = test system: ECM1; assay: ECM1 in medium of Ect1 post-LPS treatment, ELISA; assay type: cell-based; conditions: 24 h, vs control untreated cells, ± SEM
Description: (§1) At Day 1, cell culture was removed and substituted with KSFM without growth factor supplement. Cells were then treated with increasing doses of LPS (10 μg/ml, 25 μg/ml, 50 μg/ml) at Day 2.

[11] = test system: GGH; assay: GGH in medium of Ect1 post-LPS treatment, ELISA; assay type: cell-based; conditions: for Fold change GGH expression: 24 h, vs control untreated cells, ± SEM
Description: as §1

[12] = test system: FGA; assay: FGA in medium of Ect1 post-LPS treatment, ELISA; assay type: cell-based; conditions: for Fold change FGA expression: 24 h, vs control untreated cells, ± SEM
Description: as §1

[13] = test system: LAMC2; assay: LAMC2 in medium of Ect1 post-LPS treatment, ELISA; assay type: cell-based; conditions: Ect1, 50 μg/ml LPS, 24 h, vs control untreated cells, ± SEM
Description: as §1

[14] = test system: ECM1; assay: ECM1 in medium of End1 post-LPS treatment, ELISA; assay type: cell-based; conditions: for Fold change ECM1 expression: 24 h, vs control untreated cells, ± SEM
Description: as §1

[15] = test system: GGH; assay: GGH in medium of End1 post-LPS treatment, ELISA; assay type: cell-based; conditions: for Fold change GGH expression: 24 h, vs control untreated cells, ± SEM
Description: as §1

[16] = test system: FGA; assay: FGA in medium of End1 post-LPS treatment, ELISA; assay type: cell-based; conditions: for Fold change FGA expression: 24 h, vs control untreated cells, ± SEM
Description: as §1

[17] = test system: LAMC2; assay: LAMC2 in medium of End1 post-LPS treatment, ELISA; assay type: cell-based; conditions: 24 h, vs control untreated cells, ± SEM
Description: as §1

[18] = Ect1, 3 different doses of LPS, statistically insignificant
[19] = End1, LPS treatment, dose not specified

For `OO` [H2O2, Hydrogen peroxide], the “effect on cell viability” value ([1]; 50 μM H2O2, 24 h) was “no effect”, the “decrease in cell viability” value ([1]; 100 μM H2O2, 24 h) was about 20% and the “decrease in cell viability” value ([1]; 200 μM H2O2, 24 h) was about 50%. The “decrease in cell viability” value ([1]; 400 μM H2O2, 24 h) was about 90%, the “Fold change ECM1 expression” value [2] was 1.09 ± 0.21 fold and the “Fold change FGA expression” value [3] was 0.96 ± 0.21 fold. For the same compound, the “Fold change EFEMP1 expression” value [4] was 0.73 ± 0.12 fold, the “Fold change GGH expression” value ([5]; Ect1, 200 μM H2O2, 24 h) was 0.73 ± 0.16 fold and the “Fold change GGH expression” value ([5]; Ect1, 400 μM H2O2, 24 h) was 1.01 ± 0.25 fold. The “GGH expression upon H2O2 treatment” value ([5]; Ect1, H2O2 24 h, dose not given) was “remained relatively unchanged”, the “Fold change GGH expression” value ([6]; End1, 100 μM H2O2, 24 h) was 0.75 ± 0.16 fold and the “Fold change GGH expression” value ([6]; End1, 200 μM H2O2, 24 h) was 0.86 ± 0.18 fold. For the same compound, the “Fold change ECM1 expression” value ([7]; End1, 100 μM H2O2, 24 h) was 1.02 ± 0.16 fold, the “Fold change ECM1 expression” value ([7]; End1, 200 μM H2O2, 24 h) was 0.90 ± 0.07 fold and the “Fold change LAMC2 expression” value ([8]; End1, 100 μM H2O2, 24 h) was 1.15 ± 0.17 fold. For the same compound, the “Fold change LAMC2 expression” value ([8]; End1, 200 μM H2O2, 24 h) was 0.95 ± 0.16 fold, the “effect on cell viability” value ([9]; 50 μM H2O2, 24 h) was “did not affect cell viability” and the “effect on cell viability” value ([9]; 100 μM H2O2, 24 h) was “did not affect cell viability”. The “decrease in cell density” value ([9]; 200 μM H2O2, 24 h, not statistically significant) was 20% and the “decrease in cell viability” value ([9]; 400 μM H2O2, 24 h, significant) was about 50%.
In the case of Lipopolysaccharide [LPS], the “Fold change ECM1 expression” value ([10]; Ect1, 10 μg/ml LPS) is reported as 0.87 ± 0.18 fold, the “Fold change ECM1 expression” value ([10]; Ect1, 50 μg/ml LPS) is reported as 0.81 ± 0.17 fold and the “Fold change GGH expression” value ([11]; Ect1, 10 μg/ml LPS) is reported as 1.67 ± 0.40 fold. The “Fold change GGH expression” value ([11]; Ect1, 25 μg/ml LPS) was 1.42 ± 0.23 fold, the “Fold change GGH expression” value ([11]; Ect1, 50 μg/ml LPS) was 1.80 ± 0.52 fold and the “GGH expression in conditioned media” value [11, 18] was “slight increases”. The “Fold change FGA expression” value ([12]; Ect1, 10 μg/ml LPS) was 1.05 ± 0.15 fold, the “Fold change FGA expression” value ([12]; Ect1, 25 μg/ml LPS) was 1.13 ± 0.12 fold and the “Fold change FGA expression” value ([12]; Ect1, 50 μg/ml LPS) was 1.19 ± 0.22 fold. The “FGA expression in conditioned media” value [12, 18] was “slight increases”, the “Fold change LAMC2 expression” value [13] was 5.99 ± 1.86 fold and the “Fold change ECM1 expression” value ([14]; End1, 10 μg/ml LPS) was 0.94 ± 0.14 fold. The “Fold change ECM1 expression” value ([14]; End1, 25 μg/ml LPS) was 0.87 ± 0.11 fold, the “Fold change ECM1 expression” value ([14]; End1, 50 μg/ml LPS) was 0.76 ± 0.11 fold and the “ECM1 expression in conditioned media” value ([14]; End1, LPS treatment, dose not specified, statistically insignificant) was “small decrease”. For the same compound, the “Fold change GGH expression” value ([15]; End1, 10 μg/ml LPS) was 0.69 ± 0.15 fold, the “Fold change GGH expression” value ([15]; End1, 25 μg/ml LPS) was 0.92 ± 0.19 fold and the “Fold change GGH expression” value ([15]; End1, 50 μg/ml LPS) was 0.76 ± 0.13 fold. For the same compound, the “GGH expression level in conditioned media” value [15, 19] was “down-regulated”, the “Fold change FGA expression” value ([16]; End1, 10 μg/ml LPS) was 0.90 ± 0.10 fold and the “Fold change FGA expression” value ([16]; End1, 25 μg/ml LPS) was 0.92 ± 0.15 fold. For the same compound, the “Fold change FGA expression” value ([16]; End1, 50 μg/ml LPS) was 0.78 ± 0.10 fold, the “FGA expression level in conditioned media” value [16, 19] was “down-regulated” and the “Fold change LAMC2 expression” value ([17]; End1, 10 μg/ml LPS) was about 8 fold. The “Fold change LAMC2 expression” value ([17]; End1, 25 μg/ml LPS) was about 8 fold and the “Fold change LAMC2 expression” value ([17]; End1, 50 μg/ml LPS) was about 8 fold.
